The results in this text go back to PMC5384962, “First-in-human studies of seletalisib, an orally bioavailable small-molecule PI3Kδ inhibitor for the treatment of immune and inflammatory diseases” (European Journal of Clinical Pharmacology, 2017).

In the test the test system is psoriatic lesional skin. The test can be described thus: Study-1 Part-B exploratory PD in subjects with mild-to-moderate psoriasis (lesion scores, lesional skin biopsies). In kind it is in vivo, human. To be noted: six subjects with psoriasis. On the procedure:
To enable assessment of target engagement, the following exploratory PD assessments were performed at various time points prior to and following study drug administration in those subjects with mild-to-moderate psoriasis. Size and appearance of the psoriatic lesion of interest (selected at screening) were assessed by lesion severity score and lesion area. Total affected area (percentage of BSA) and Physician’s Global Assessment were assessed to evaluate overall disease severity. Histological assessments of skin biopsies (6 mm) were performed by immunofluorescent microscopy of frozen sections of lesional skin, except for haematoxylin and eosin staining and IL-17 staining which were performed on formalin fixed paraffin embedded sections. Numbers of T cells (CD3), Langerhans cells (CD1a), neutrophils (MPO) and dermal dendritic cells (CD11c) were determined.  Fig. 3 Cellular responses in lesional biopsies. Lesional biopsies were taken on days 4 and 14 from each patient, and subsequently fixed, sectioned and, using immunofluorescence, stained for CD11c (dendritic cells), CD1a (Langerhans cells), CD3 (T cells) and myeloperoxidase (MPO; neutrophils). Cells were identified using a nuclear stain. Images acquired on a slide scanner were analysed using Definiens software and, following thresholding, positive cells identified. The number of positive cells per square millimeter was calculated and the fold-change in cell density from baseline was calculated. Data are mean ± SD (placebo, n = 3; treated, n = 6)

[1] abbreviates: 15 mg, relative to placebo, lesional biopsies.

For the compound `[O-][n+]1cccc(-c2nc3c(Cl)cccc3cc2[C@@H](Nc2ncnc3cccnc23)C(F)(F)F)c1` [Seletalisib, seletalisib], for the setting “15 mg for 14 days”, the “lesion severity score, total affected area (% BSA), lesion area, Physician’s Global Assessment” value is reported as “improvements in these parameters were seen in some of the six subjects”. Besides, under setting [1], the “numbers of dermal inflammatory cells (CD3+, CD11c+ and MPO+ cells)” value is “trend towards reduced numbers”; the “resident Langerhans cells (CD1a+ cells)” value is reported as “return of the resident Langerhans cells”.
